Source: patent publication US8106055B2, “Substituted amide compounds” (Gruenenthal GmbH, priority 2007, dated 2012)

biological target: T1, human bradykinin 1 receptor (B1R) (Homo sapiens, UniProt P46663); test: Functional investigation on the human bradykinin 1 receptor (B1R), Ca2+ FLIPR assay in CHO K1 hB1R cells; type: cell-based; conditions: B1R antagonism human; test substance 10 μM; Ca2+ FLIPR, CHO K1 hB1R cells
T1 construct: expressed in transfected cells; host or cells: CHO K1 cells
T1 sequence (P46663 1-353): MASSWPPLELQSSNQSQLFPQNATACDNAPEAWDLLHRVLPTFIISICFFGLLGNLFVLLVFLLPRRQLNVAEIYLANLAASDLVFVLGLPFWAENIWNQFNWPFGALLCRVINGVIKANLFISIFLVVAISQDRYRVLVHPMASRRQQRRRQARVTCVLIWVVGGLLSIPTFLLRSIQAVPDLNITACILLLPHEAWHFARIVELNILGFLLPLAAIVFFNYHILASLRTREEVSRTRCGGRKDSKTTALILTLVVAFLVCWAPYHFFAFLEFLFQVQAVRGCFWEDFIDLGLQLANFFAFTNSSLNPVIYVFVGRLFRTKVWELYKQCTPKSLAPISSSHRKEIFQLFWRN
How it was run: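 Fluo-4 Ca2+ readout, peak fluorescence. Stable CHO K1 transfectants; compound pre-incubated 10-20 min, then EC80 agonist—Lys-Des-Arg9-BK for hB1R, Des-Arg9-BK for rB1R. % inhibition vs maximal inhibition; IC50 from multiple concentrations, duplicate/triplicate, ≥2 independent runs.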

Compound | B1R Ant. h [10 μM] % Inhibition [%]
COc1ccc(S(=O)(=O)N2CCCC2COCC(=O)NC2CCC(C(c3cccc(F)c3)N(C)C)CC2)cc1 (stereo not drawn) [Example 268] | 7
COc1ccc(S(=O)(=O)N2CCCCC2COCC(=O)NC2CCC(C(c3cccs3)N(C)C)CC2)cc1 (stereo not drawn) [Example 243] | 16
Cc1ccc(S(=O)(=O)N2CCC(OCC(=O)NCCC3CCC(C(c4cccs4)N(C)C)CC3)C2)cc1 (stereo not drawn) [Example 272] | 20
CN(C)C(c1cccc(F)c1)C1CCC(NC(=O)COCCN(C)S(=O)(=O)c2ccc(OC(F)(F)F)cc2)CC1 (stereo not drawn) [Example 246] | 10
CN(C)C(c1ccccc1)C1CCC(CNC(=O)COC2CCN(S(=O)(=O)c3ccc(F)cc3)C2)CC1 (stereo not drawn) [Example 219] | −1
CN(C)C(c1cccc(F)c1)C1CCC(NC(=O)COCC2CCCN2S(=O)(=O)c2ccc(Cl)c(Cl)c2)CC1 (stereo not drawn) [Example 211] | 33
CN(C)C(c1ccc(Cl)cc1)C1CCC(CNC(=O)COCCN(C)S(=O)(=O)c2c(Cl)cccc2Cl)CC1 (stereo not drawn) [Example 207] | 104
Cc1ccc(S(=O)(=O)N2CCC(OCC(=O)NCCC3CCC(C(c4cccc(F)c4)N(C)C)CC3)C2)cc1 (stereo not drawn) [Example 216] | 20
COc1cc(C)c(S(=O)(=O)N2CCC(OCC(=O)NCC3CCC(C(c4cccc(F)c4)N(C)C)CC3)C2)c(C)c1C (stereo not drawn) [Example 252] | 59
COc1ccc(S(=O)(=O)N(C)CCOCC(=O)NC2CCC(C(c3cccs3)N(C)C)CC2)cc1OC (stereo not drawn) [Example 206] | −5
CN(C)C(c1cccc(F)c1)C1CCC(NC(=O)COCCN(C)S(=O)(=O)c2ccc(F)cc2)CC1 (stereo not drawn) [Example 205] | −11
COc1ccc(S(=O)(=O)N2CCC(OCC(=O)NCC3CCC(C(c4ccc(Cl)cc4)N(C)C)CC3)C2)cc1OC (stereo not drawn) [Example 260] | −7
CN(C)C(c1ccc(F)cc1)C1CCC(CNC(=O)COCCN(C)S(=O)(=O)c2ccc(Cl)cc2Cl)CC1 (stereo not drawn) [Example 249] | 104
CN(C)C(c1cccc(F)c1)C1CCC(CCNC(=O)COC2CCN(S(=O)(=O)c3ccc(Cl)cc3)C2)CC1 (stereo not drawn) [Example 247] | 4
COc1cc(C)c(S(=O)(=O)N(CCOCC(=O)NCCC2CCC(C(c3cccs3)N(C)C)CC2)Cc2ccccc2)c(C)c1C (stereo not drawn) [Example 254] | 27
COc1ccc(S(=O)(=O)N2CCC(OCC(=O)NCCC3CCC(C(c4cccc(F)c4)N(C)C)CC3)C2)cc1OC (stereo not drawn) [Example 262] | −6
CN(C)C(c1cccs1)C1CCC(CCNC(=O)COC2CCN(S(=O)(=O)c3ccccc3)CC2)CC1 (stereo not drawn) [Example 230] | −16
CN(C)C(c1cccc(F)c1)C1CCC(CCNC(=O)COC2CCN(S(=O)(=O)c3ccc(Cl)cc3Cl)C2)CC1 (stereo not drawn) [Example 259] | 72
CN(C)C(c1cccc(F)c1)C1CCC(NC(=O)COCCN(C)S(=O)(=O)c2c(Cl)cc(Cl)cc2Cl)CC1 (stereo not drawn) [Example 208] | 89
COc1ccc(S(=O)(=O)N(C)CCOCC(=O)NCC2CCC(C(c3ccccc3)N(C)C)CC2)cc1 (stereo not drawn) [Example 242] | 39
COc1cc(C)c(S(=O)(=O)N2CCC(OCC(=O)NC3CCC(C(c4cccc(F)c4)N(C)C)CC3)C2)c(C)c1 (stereo not drawn) [Example 251] | 81
Cc1ccc(S(=O)(=O)N(C)CCOCC(=O)NCCC2CCC(C(c3cccc(F)c3)N(C)C)CC2)cc1 (stereo not drawn) [Example 240] | 2
CN(C)C(c1cccc(F)c1)C1CCC(CCNC(=O)COCCN(C)S(=O)(=O)c2ccc(OC(F)(F)F)cc2)CC1 (stereo not drawn) [Example 215] | 1
CN(C)C(c1cccc(F)c1)C1CCC(NC(=O)COC2CCN(S(=O)(=O)c3ccc(Cl)cc3)C2)CC1 (stereo not drawn) [Example 204] | 2
CN(C)C(c1ccccc1)C1CCC(CNC(=O)COCCN(C)S(=O)(=O)c2c(Cl)cc(Cl)cc2Cl)CC1 (stereo not drawn) [Example 614, N-[4-(dimethylaminophenylmethyl)-cyclohexylmethyl]-2-{2-[(2,4,6-trichlorobenzenesulfonyl)-methylamino]-ethoxy}-acetamide] | 102
CN(CCOCC(=O)NC1CCC(C(c2ccccc2)N2CCCC2)CC1)S(=O)(=O)c1c(Cl)cc(Cl)cc1Cl (stereo not drawn) [Example 606, 2-{2-[methyl-(2,4,6-trichlorobenzenesulfonyl)-amino]-ethoxy}-N-[4-(phenylpyrrolidin-1-yl-methyl)-cyclohexyl]-acetamide] | 77
COc1cc(C)c(S(=O)(=O)N(C)CCOCC(=O)NCC2CCC(C(c3cccc(F)c3)N(C)C)CC2)c(C)c1 (stereo not drawn) [Example 248] | 104

same assay, conditions: CHO-K1, B1R antagonism human; test substance 10 μM; Ca2+ FLIPR, CHO K1 hB1R cells; read-out: B1R Ant. h [10 μM] % Inhibition

Compound | inhibition at 10 µM [%]
O=C(COCCN(C1CC1)S(=O)(=O)c1c(Cl)cc(Cl)cc1Cl)NC1CCC(C(c2ccccc2)N2CCCC2)CC1 (stereo not drawn) [Example 603, 2-{2-[cyclopropyl-(2,4,6-trichlorobenzenesulfonyl)-amino]-ethoxy}-N-[4-(phenylpyrrolidin-1-ylmethyl)-cyclohexyl]-acetamide] | 86
CN(C)C(c1ccccc1)C1CCC(NC(=O)COC2CCN(S(=O)(=O)c3c(Cl)cc(Cl)cc3Cl)C2)CC1 (stereo not drawn) [Example 609, N-[4-(dimethylaminophenylmethyl)-cyclohexyl]-2-[1-(2,4,6-trichlorobenzenesulfonyl)-pyrrolidin-3-yloxy]-acetamide] | 64
CN(C)C(c1ccccc1)C1CCC(NC(=O)COCCN(C)S(=O)(=O)c2c(Cl)cc(Cl)cc2Cl)C1 (stereo not drawn) [Example 615, N-[3-(dimethylaminophenylmethyl)-cyclopentyl]-2-{2-[(2,4,6-trichlorobenzenesulfonyl)-methylamino]-ethoxy}-acetamide] | 95
